{
  "source": "patent US20210205244A1",
  "about": "“PREVENTION AND/OR TREATMENT OF CHRONIC FATIGUE SYNDROME” (BOHNE ASKØY AS, priority 2016, published 2021)",
  "key": {"[1]": {"tested_on": "healthy and ME affected persons", "conditions": "general knowledge; cited from earlier work"}, "[2]": {"tested_on": "Person 5", "experiment": "Medicinal drug use in combination with the treatment", "format": "in vivo, human", "conditions": "Person 5, excluded after 20 weeks", "experimental": "Three persons were not receiving the drinkable for self-treatment: 2, 5 and 6. […] Person 6 was excluded of toxicological consideration after 20 weeks because massive use of painkiller […] forte, 600 mg: 20 tablets per day, and was practically an abuser of medicinal drugs. Person 2 was excluded because use of sleep medicine-Alimemazin tartrate. All three drugs listed with long list of the negative by-effects. Those effects are very similar to the symptoms on the list of Canadian Criteria. Further treatment with mixture of drinkable oxalates was therefore is not considerate."}, "[3]": {"tested_on": "P12", "conditions": "P12, altogether 8 doses; cited from earlier work"}},
  "note": "Counter-ions that a name gives are not always drawn.",
  "data": [
    {"compound": "O=C(O)CCCCC1CCSS1", "note": "(stereo not drawn) [ALA, alpha-lipoic acid]", "values": [
      {"measurement": "Time of excretion via urine post intake", "setting": "[1]", "value": "30 to 60", "unit": "min"}
    ]},
    {"compound": "CN(C)CCC[C@@]1(c2ccc(F)cc2)OCc2cc(C#N)ccc21", "note": "[Escitalopram Oxalate]", "values": [
      {"measurement": "Adverse effect in combination with mixture of drinkable oxalates", "setting": "[2]", "value": "massive diarrhea"}
    ]},
    {"compound": "Rituximab: Rituximab therapy given in clinical studies at Haukeland University Hospital", "values": [
      {"measurement": "Response to therapy", "setting": "[3]", "value": "non-responder"}
    ]}
  ]
}
